The term IC50 denotes the concentration that inhibits the measured activity by half. Low values mean greater potency in that assay, high ones weaker potency in that assay.

A value given as a limit tells only on which side of the number the result lay.

The target of this experiment is Epidermal growth factor receptor (Homo sapiens, UniProt P00533). The experiment in a line: Inhibition of wild-type EGFR expressed using baculovirus expression system by ELISA. On the technique in general: In an ELISA, binding on a coated surface is turned into a signal by an enzyme label.
Epidermal growth factor receptor, sequence (P00533 whole entry): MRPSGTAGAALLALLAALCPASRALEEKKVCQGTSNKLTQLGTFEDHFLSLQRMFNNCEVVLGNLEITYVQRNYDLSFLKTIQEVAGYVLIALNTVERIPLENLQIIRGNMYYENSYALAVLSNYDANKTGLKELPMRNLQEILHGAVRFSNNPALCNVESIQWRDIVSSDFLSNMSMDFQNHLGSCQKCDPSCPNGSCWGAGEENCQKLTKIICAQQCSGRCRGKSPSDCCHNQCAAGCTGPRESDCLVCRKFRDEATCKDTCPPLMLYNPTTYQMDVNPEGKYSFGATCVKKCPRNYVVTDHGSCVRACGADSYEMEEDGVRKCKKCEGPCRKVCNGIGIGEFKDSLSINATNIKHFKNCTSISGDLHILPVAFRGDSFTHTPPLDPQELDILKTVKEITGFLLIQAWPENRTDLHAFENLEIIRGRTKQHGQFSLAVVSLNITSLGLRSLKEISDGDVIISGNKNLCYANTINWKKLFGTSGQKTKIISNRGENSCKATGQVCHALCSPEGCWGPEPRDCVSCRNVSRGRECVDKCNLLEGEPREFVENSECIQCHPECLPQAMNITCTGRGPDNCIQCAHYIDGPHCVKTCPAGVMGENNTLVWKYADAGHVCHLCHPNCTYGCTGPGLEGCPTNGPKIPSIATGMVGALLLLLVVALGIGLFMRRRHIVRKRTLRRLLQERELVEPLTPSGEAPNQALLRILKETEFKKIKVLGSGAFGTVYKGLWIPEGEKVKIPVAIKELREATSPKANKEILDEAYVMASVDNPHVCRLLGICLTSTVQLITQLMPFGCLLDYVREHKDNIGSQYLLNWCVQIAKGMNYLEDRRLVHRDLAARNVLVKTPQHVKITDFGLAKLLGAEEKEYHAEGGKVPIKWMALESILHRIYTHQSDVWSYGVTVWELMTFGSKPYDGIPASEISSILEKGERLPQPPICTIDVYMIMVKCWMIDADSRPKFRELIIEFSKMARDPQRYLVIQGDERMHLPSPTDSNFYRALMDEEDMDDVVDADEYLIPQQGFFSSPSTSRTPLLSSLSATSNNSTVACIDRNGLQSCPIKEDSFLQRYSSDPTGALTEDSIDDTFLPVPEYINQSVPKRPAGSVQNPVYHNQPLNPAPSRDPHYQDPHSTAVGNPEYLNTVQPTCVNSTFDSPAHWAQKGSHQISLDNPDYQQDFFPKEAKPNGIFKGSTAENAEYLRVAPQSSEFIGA
For the compound `CNc1nc(N=NCc2ccc(OC)cc2)nc(Nc2ccccc2)n1`, the IC50 is > 100 µM.
As for `CNc1nc(N=NCc2ccc(O)cc2)nc(Nc2ccccc2)n1`, the figure is > 100 µM; as for `Cn1cc(NC(=O)CN=O)c(=O)n1-c1ccccc1`, > 100 µM.

For the origin of these results see BindingDB's records for doi:10.1016/j.bmcl.2011.12.067 (Dalian University of Technology, 2012).
